Experimental data published in patent US7541020B2, “Aminoalkyl glucosaminide phosphate compounds and their use as adjuvants and immunoeffectors” (priority 1997, dated 2009).
Where “and” joins values, the source holds several entries; their conditions need not be identical. Equal values may be shown once. Read-outs that look alike come from different tables or passages of the source.

Columns and labels:
influenza A/HK/68 [1] = assay type: in vivo, ICR mice; conditions: mouse, in vivo
[2] = test system: hepatitis B surface antigen (HBsAg); test: Serum anti-HBsAg antibody titers after intranasal HBsAg + AGP-AF (ELISA); assay type: in vivo, BALB/c mice; conditions: for Anti HBsAg Titer^−1 IgG1 / Anti HBsAg Titer^−1 IgG2a: K = 10^3
[3] = test system: hepatitis B surface antigen (HBsAg); test: Vaginal wash anti-HBsAg antibody after intranasal HBsAg + AGP-AF; assay type: in vivo, BALB/c mice; conditions: 10 days after the booster immunization; intranasal HBsAg + 10 μg AGP-AF
From the text: Vaginal samples were collected 10 days after the booster immunization and assayed for anti-HBsAg antibody.

[4] = test system: hepatitis B surface antigen (HBsAg); conditions: for % Cytotoxicity (d16, post 2°): HBsAg + 10 μg AGP-AF intranasally; for % Cytotoxicity (d8, post 3°): intranasal HBsAg + 10 μg AGP-AF
influenza A/HK/68 [5] = test system: influenza A/HK/68; parameters: species or system ICR mice; conditions: mouse, in vivo
[6] = Fever response in rabbits (pyrogenicity); assay type: in vivo; conditions: 10 ug/kg; cumulative rise ≥1.5 degree in three rabbits is considered pyrogenic
Method: The AGP compounds were also evaluated for their tendency to induce a fever response in rabbits. Each compound was formulated in 10% (v/v) ethanol/water solution at 100 mg/ml, then diluted with D5W to the desired concentration. The material was injected at 3 ml/kg body weight into 3 rabbits. The rise in core temperature of the rabbits was recorded.

E.G7 (OVA) cells = conditions: s.c. 25 μg OVA in AGP preparation, spleen cells 21 days later
influenza A/HK/68 [7] = test: Second intranasal influenza vaccine experiment with aqueous AGP and MPL formulations: vaginal, tracheal wash and serum titers, protection; assay type: in vivo, BABL/c mice
tetanus toxoid [8] = conditions: mouse, in vivo
tetanus toxoid [9] = conditions: mouse, in vivo, sc
influenza A/HK/68 [10] = conditions: mouse, in vivo
[11] = test system: hepatitis B surface antigen (HBsAg); test: Anti-HBsAg antibody titer with AGP-SE (ELISA plates coated with HBsAg or p72 peptide); conditions: sera day 28 post 2°, 25 μg AGP-SE
[12] = day 22 post 2°, HBsAg + 10 μg AGP-AF intranasally
[13] = serum, day 21 post 3°, intranasal HBsAg + 10 μg AGP-AF
[14] = ELISA plates coated with p72 peptide

## 3-Hydroxy-(S)-2-[(R)-3-decanoyloxytetradecanoylamino]propyl 2-Deoxy-4-O-phosphono-2-[(R)-3-decanoyloxytetradecanoylamino]-3-O-[(R)-3-decanoyloxytetradecanoyl]-β-D-glucopyranoside Triethylammonium Salt [B5]
Influenza A/HK/68 [1]
  Percent Survival: 44%
  Titer−1 IgG1: 200
  Titer−1 IgG2a: 50
  Titer−1 IgG2b: 400
  Titer−1 Total IgG: 800
[2]; [12]
  Anti HBsAg Titer^−1 IgA: 3,200
  Anti HBsAg Titer^−1 IgG1: 256K
  Anti HBsAg Titer^−1 IgG2a: 500K
[2]; [13]
  Anti HBsAg Titer^−1 IgG1: 500K
  Anti HBsAg Titer^−1 IgG2a: 1000K
  Anti HBsAg Titer^−1 IgA: 12,800
[3]
  Vaginal Wash Anti-HBsAg Titer^−1 IgA: 1600
  Vaginal Wash Anti-HBsAg Titer^−1 IgG: 1600
[4]; E/T 6.25:1
  % Cytotoxicity (d16, post 2°): 11%
  % Cytotoxicity (d8, post 3°): 12%
[4]; E/T 12.5:1
  % Cytotoxicity (d16, post 2°): 20%
  % Cytotoxicity (d8, post 3°): 19%
[4]; E/T 25:1
  % Cytotoxicity (d16, post 2°): 30%
  % Cytotoxicity (d8, post 3°): 30%
[4]; E/T 50:1
  % Cytotoxicity (d16, post 2°): 43%
  % Cytotoxicity (d8, post 3°): 44%
Influenza A/HK/68 [5]
  IgG Titer-1 post 1°: 1600
  IgG Titer-1 post 2°: >102,400
  Percent Survival post 1°: 60%
  Percent Survival post 2°: 90%
[6]
  PYROGENICITY Total Rise ° C., 3 rabbits: 4.1 °C
E.G7 (OVA) cells; E:T 12.5:1
  % Cytotoxicity: 11%
E.G7 (OVA) cells; E:T 25:1
  % Cytotoxicity: 18%
E.G7 (OVA) cells; E:T 50:1
  % Cytotoxicity: 28%

## 3-Hydroxy-(S)-2-[(R)-3-undecanoyloxytetradecanoylamino]propyl 2-Deoxy-4-O-phosphono-2-[(R)-3-undecanoyloxytetradecanoylamino]-3-O-[(R)-3-undecanoyloxytetradecanoyl]-β-D-glucopyranoside Triethylammonium Salt [B4]
Influenza A/HK/68 [1]
  Percent Survival: 60%
  Titer−1 IgG1: 400
  Titer−1 IgG2a: 100
  Titer−1 IgG2b: 1600
  Titer−1 Total IgG: 3200
[2]; [12]
  Anti HBsAg Titer^−1 IgA: 6,400
  Anti HBsAg Titer^−1 IgG1: 500K
  Anti HBsAg Titer^−1 IgG2a: 1000K
[2]; [13]
  Anti HBsAg Titer^−1 IgG1: 1000K
  Anti HBsAg Titer^−1 IgG2a: 2000K
  Anti HBsAg Titer^−1 IgA: 25,600
[3]
  Vaginal Wash Anti-HBsAg Titer^−1 IgA: 6400
  Vaginal Wash Anti-HBsAg Titer^−1 IgG: 1600
[4]; E/T 6.25:1
  % Cytotoxicity (d16, post 2°): 7%
  % Cytotoxicity (d8, post 3°): 5%
[4]; E/T 12.5:1
  % Cytotoxicity (d16, post 2°): 9%
  % Cytotoxicity (d8, post 3°): 9%
[4]; E/T 25:1
  % Cytotoxicity (d16, post 2°): 17%
  % Cytotoxicity (d8, post 3°): 15%
[4]; E/T 50:1
  % Cytotoxicity (d16, post 2°): 28%
  % Cytotoxicity (d8, post 3°): 23%
Influenza A/HK/68 [5]
  IgG Titer-1 post 1°: 800
  IgG Titer-1 post 2°: 25,600
  Percent Survival post 1°: 50%
  Percent Survival post 2°: 70%
[6]
  PYROGENICITY Total Rise ° C., 3 rabbits: 3.4 °C
E.G7 (OVA) cells; E:T 12.5:1
  % Cytotoxicity: 60%
E.G7 (OVA) cells; E:T 25:1
  % Cytotoxicity: 66%
E.G7 (OVA) cells; E:T 50:1
  % Cytotoxicity: 72%

## 3-O-deacylated monophosphoryl lipid A [MPL®, reference compound]
Influenza A/HK/68 [7]; administered intranasally with influenza vaccine, vaginal and tracheal washes
  mucosal adjuvant activity (in words): act as mucosal adjuvants causing the production of IgA at two mucosal sites

## 4-[(R)-3-Tetradecanoyloxytetradecanoylamino]butyl 2-Deoxy-4-O-phosphono-3-O-[(R)-3-tetradecanoyoxytetradecanoyl]-2-[(R)-3-tetradecanoyloxytetradecanoylamino])-β-D-glucopyranoside Triethylammonium Salt [B22]
Tetanus toxoid [8]
  Anti-Tetanus Toxoid Titer^−1 Fecal Extract IgG: 25 and 50
  Anti-Tetanus Toxoid Titer^−1 Vaginal Wash IgG: 400 and 800
Tetanus toxoid [9]
  Anti-tetanus toxoid IgG1 T/C: 18.4
  Anti-tetanus toxoid IgG1 Titer: 27,400
  Anti-tetanus toxoid IgG2a T/C: 345.8
  Anti-tetanus toxoid IgG2a Titer: 5,187
  Anti-tetanus toxoid IgG2b T/C: 59.6
  Anti-tetanus toxoid IgG2b Titer: 3,160
  Anti-tetanus toxoid IgM T/C: 0.8
  Anti-tetanus toxoid IgM Titer: 440
  Anti-tetanus toxoid Total Ig T/C: 60.0
  Anti-tetanus toxoid Total Ig Titer: 19,050
Influenza A/HK/68 [10]
  Percent Survival: 40%
  Titer−1 IgG1: 100
  Titer−1 IgG2a: 3200
  Titer−1 IgG2b: 200
  Titer−1 Total IgG: 3200
[2]; [12]
  Anti HBsAg Titer^−1 IgA: 1,600
  Anti HBsAg Titer^−1 IgG1: 256K
  Anti HBsAg Titer^−1 IgG2a: 64K
[2]; [13]
  Anti HBsAg Titer^−1 IgG1: 500K
  Anti HBsAg Titer^−1 IgG2a: 500K
  Anti HBsAg Titer^−1 IgA: 12,800
[3]
  Vaginal Wash Anti-HBsAg Titer^−1 IgA: 800
  Vaginal Wash Anti-HBsAg Titer^−1 IgG: 100
[11]; ELISA plates coated with HBsAg
  Anti-HBsAg Titer^−1 HBsAg IgG1: 1024K
  Anti-HBsAg Titer^−1 HBsAg IgG2a: 1024K
[11]; [14]
  Anti-HBsAg Titer^−1 p72-Peptide IgG1: 128K
  Anti-HBsAg Titer^−1 p72-Peptide IgG2a: 128K

## N-[(R)-3-Hexanoyloxytetradecanoyl]-O-[2-deoxy-4-O-phosphono-2-[(R)-3-hexanoyloxytetradecanoylamino]-3-O-[(R)-3-hexanoyloxytetradecanoyl]-α-D-glucopyranosyl]-L-serine Triethylammonium Salt [B34]
Influenza A/HK/68 [7]; mouse, in vivo
  Mucosal IgA Response TW: <4.6
  Mucosal IgA Response VW: <4.6
  Percent Protection: 0%
  Serum IgG Titers: 8.4
[6]
  PYROGENICITY Total Rise ° C., 3 rabbits: 2.8 °C
